Source: US20260125382A1, “COMPOUNDS FOR INHIBITING OR DEGRADING CDK2 AND/OR CDK9 AND MEDICINAL USE THEREOF” (KOREA RESEARCH INSTITUTE OF CHEMICAL TECHNOLOGY, priority 2022, published 2026)

Legend:
[1] = target: T1, CDK2 (Homo sapiens, UniProt P24941); assay: CDK protein degradation activity (Western blotting), CDK2; format: cell-based; settings: MDA-MB-231 cells, 16 hours, Western blot
T1 construct: endogenous in cells; host or cells: MDA-MB-231
How it was run: (§1)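 Protein levels were read by Western blot densitometry, tubulin serving as loading reference. Beforehand, MDA-MB-231 cells had been exposed for 16 hours to 100 nM, 1 μM or 10 μM compound, DMSO as control.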

[2] = target: T2, CDK9 (Homo sapiens, UniProt P50750); assay: CDK protein degradation activity (Western blotting), CDK9; format: cell-based; settings: MDA-MB-231 cells, 16 hours, Western blot
T2 construct: endogenous in cells; host or cells: MDA-MB-231
How it was run: as §1

T2 sequence (P50750 whole entry): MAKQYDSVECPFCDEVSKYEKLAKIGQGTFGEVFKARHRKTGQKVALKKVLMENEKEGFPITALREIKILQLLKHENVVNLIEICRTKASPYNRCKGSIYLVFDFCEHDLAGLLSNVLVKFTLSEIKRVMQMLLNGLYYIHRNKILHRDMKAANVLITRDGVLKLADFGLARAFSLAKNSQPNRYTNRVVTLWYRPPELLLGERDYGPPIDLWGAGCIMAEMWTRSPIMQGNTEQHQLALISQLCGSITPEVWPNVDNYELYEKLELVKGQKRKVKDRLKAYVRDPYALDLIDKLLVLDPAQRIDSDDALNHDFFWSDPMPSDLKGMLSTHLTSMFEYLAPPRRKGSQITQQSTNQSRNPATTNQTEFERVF

Compound	Enzyme degradation CDK2 (% remaining) @ 0.1 μM [1]	Enzyme degradation CDK2 (% remaining) @ 1 μM [1]	Enzyme degradation CDK2 (% remaining) @ 10 μM [1]	Enzyme degradation CDK9 (% remaining) @ 0.1 μM [2]	Enzyme degradation CDK9 (% remaining) @ 1 μM [2]	Enzyme degradation CDK9 (% remaining) @ 10 μM [2]
N#Cc1cccc(C(=O)NC2CC(n3cnc4c(Nc5ccc(N6CCN(CC7CCN(C(=O)C8CN(c9ccc%10c(c9)C(=O)N([C@H]9CCC(=O)NC9=O)C%10=O)C8)CC7)CC6)cc5)ncnc43)C2)n1 (stereo partly drawn) [Compound 454, 6-cyano-N-((1s,3s)-3-(6-((4-(4-((1-(1-(2-(2,6-dioxopiperidin-3-yl)-1,3-dioxoisoindolin-5-yl)azetidin-3-carbonyl)piperidin-4-yl)methyl)piperazin-1-yl)phenyl)amino)-9H-purin-9-yl)cyclobutyl)picolinamide]	30%	20%	10%	0/0/0%	0/0/0%	0/0/0%
O=C1CC[C@H](N2C(=O)c3ccc(NCC(=O)N4CCN(CC5CCN(c6ccc(Nc7ncnc8c7ncn8[C@H]7C[C@@H](NC(=O)c8c(Cl)cccc8Cl)C7)cc6)CC5)CC4)cc3C2=O)C(=O)N1 [Compound 312, 2,6-dichloro-N-((1s,3s)-3-(6-((4-(4-((4-((2-(2,6-dioxopiperidin-3-yl)-1,3-dioxoisoindolin-5-yl)glycyl)piperazin-1-yl)methyl)piperidin-1-yl)phenyl)amino)-9H-purin-9-yl)cyclobutyl)benzamide]	10/10/10%	10/10/10%	10/10/10%	0/0/0%	0/0/0%	0/0/0%
O=C1CC[C@H](N2C(=O)c3ccc(N4CCC(CN5CCN(c6ccc(Nc7ncnc8c7ncn8[C@H]7C[C@@H](NC(=O)Cc8ccccc8)C7)cc6)CC5)CC4)cc3C2=O)C(=O)N1 [Compound 179, N-((1s,3s)-3-(6-((4-(4-((1-(2-(2,6-dioxopiperidin-3-yl)-1,3-dioxoisoindolin-5-yl)piperidin-4-yl)methyl)piperazin-1-yl)phenyl)amino)-9H-purin-9-yl)cyclobutyl)-2-phenylacetamide]	10%	0%	0%	10%	0%	0%
O=C1CC[C@H](N2C(=O)c3cc(F)c(N4CCN(CCCC5CCN(c6ccc(Nc7ncnc8c7ncn8[C@H]7C[C@@H](NC(=O)Cc8ccccc8)C7)cc6)CC5)CC4)cc3C2=O)C(=O)N1 [Compound 348, N-((1s,3s)-3-(6-((4-(4-(3-(4-(2-(2,6-dioxopiperidin-3-yl)-6-fluoro-1,3-dioxoisoindolin-5-yl)piperazin-1-yl)propyl)piperidin-1-yl)phenyl)amino)-9H-purin-9-yl)cyclobutyl)-2-phenylacetamide]	30%	10%	10%	80%	20%	0%
Cc1cccc(C(=O)NC2CC(n3cnc4c(NCc5cccc(N6CCN(c7cccc8c7C(=O)N([C@H]7CCC(=O)NC7=O)C8=O)CC6)c5)ncnc43)C2)n1 (stereo partly drawn) [Compound 126, N-((1s,3s)-3-(6-((3-(4-(2-(2,6-dioxopiperidin-3-yl)-1,3-dioxoisoindolin-4-yl)piperazin-1-yl)benzyl)amino)-9H-purin-9-yl)cyclobutyl)-6-methylpicolinamide]	80%	70%	70%	80%	70%	70%
O=C1CC[C@@H](c2ccc(OCC(=O)N3CCC(CCN4CCN(c5ccc(Nc6ncnc7c6ncn7[C@H]6C[C@@H](NC(=O)c7cccc(C(F)(F)F)n7)C6)cc5)CC4)CC3)cc2)C(=O)N1 [Compound 438, N-((1s,3s)-3-(6-((4-(4-(2-(1-(2-(4-(2,6-dioxopiperidin-3-yl)phenoxy)acetyl)piperidin-4-yl)ethyl)piperazin-1-yl)phenyl)amino)-9H-purin-9-yl)cyclobutyl)-6-(trifluoromethyl)picolinamide]	40%	50%	50%	10/10/10%	10/10/10%	10/10/10%
Cc1cccc(C(=O)N[C@H]2C[C@@H](n3cnc4c(NCc5ccc(OCCCN6CCN(C(=O)COc7cccc8c7C(=O)N([C@H]7CCC(=O)NC7=O)C8=O)CC6)cc5)ncnc43)C2)n1 [Compound 113, N-((1s,3s)-3-(6-((4-(3-(4-(2-((2-(2,6-dioxopiperidin-3-yl)-1,3-dioxoisoindolin-4-yl)oxy)acetyl)piperazin-1-yl)propoxy)benzyl)amino)-9H-purin-9-yl)cyclobutyl)-6-methylpicolinamide]	30/30/30%	30/30/30%	30/30/30%	100%	10%	0%
O=C1CC[C@@H](c2ccc(OCC(=O)N3CCC(CCCN4CCN(c5ccc(Nc6ncnc7c6ncn7[C@H]6C[C@@H](NC(=O)Cc7ccccc7)C6)cc5)CC4)CC3)cc2)C(=O)N1 [Compound 258, N-((1s,3s)-3-(6-((4-(4-(3-(1-(2-(4-(2,6-dioxopiperidin-3-yl)phenoxy)acetyl)piperidin-4-yl)propyl)piperazin-1-yl)phenyl)amino)-9H-purin-9-yl)cyclobutyl)-2-phenylacetamide]	20/20/20%	20/20/20%	20/20/20%	20%	0%	0%
2,6-dichloro-N-((1s,3s)-3-(6-((4-(4-((4-(1-(2-(2,6-dioxopiperidin-3-yl)-1,3-dioxoisoindolin-5-yl)azetidin-3-carbonyl)piperazin-1-yl)methyl)piperidin-1-yl)phenyl)amino)-9H-purin-9-yl)cyclobutyl)benzamide [Compound 473]	20/20/20%	20/20/20%	20/20/20%	10/10/10%	10/10/10%	10/10/10%
O=C1CC[C@H](N2C(=O)c3ccc(N4CCN(C5CC6(CCN(c7ccc(Nc8ncnc9c8ncn9[C@H]8C[C@@H](NC(=O)Cc9ccccc9)C8)cc7)CC6)C5)CC4)cc3C2=O)C(=O)N1 [Compound 335, N-((1s,3s)-3-(6-((4-(2-(4-(2-(2,6-dioxopiperidin-3-yl)-1,3-dioxoisoindolin-5-yl)piperazin-1-yl)-7-azaspiro[3.5]nonan-7-yl)phenyl)amino)-9H-purin-9-yl)cyclobutyl)-2-phenylacetamide]	20%	10%	10%	70%	0%	0%
O=C1CC[C@H](N2C(=O)c3cc(F)c(N4CCC(C(=O)N5CCC(CCCN6CCN(c7ccc(Nc8ncnc9c8ncn9[C@H]8C[C@@H](NC(=O)Cc9ccccc9)C8)cc7)CC6)CC5)CC4)cc3C2=O)C(=O)N1 [Compound 459, N-((1s,3s)-3-(6-((4-(4-(3-(1-(1-(2-(2,6-dioxopiperidin-3-yl)-6-fluoro-1,3-dioxoisoindolin-5-yl)piperidin-4-carbonyl)piperidin-4-yl)propyl)piperazin-1-yl)phenyl)amino)-9H-purin-9-yl)cyclobutyl)-2-phenylacetamide]	50%	30%	30%	0/0/0%	0/0/0%	0/0/0%
O=C1CC[C@H](N2C(=O)c3cccc(NCC(=O)N4CCC(CN5CCC(CNc6ncnc7c6ncn7C6CC(NC(=O)Cc7ccccc7)C6)CC5)CC4)c3C2=O)C(=O)N1 (stereo partly drawn) [Compound 184, N-((1s,3s)-3-(6-(((1-((1-((2-(2,6-dioxopiperidin-3-yl)-1,3-dioxoisoindolin-4-yl)glycyl)piperidin-4-yl)methyl)piperidin-4-yl)methyl)amino)-9H-purin-9-yl)cyclobutyl)-2-phenylacetamide]	70%	70%	50%	0/0/0%	0/0/0%	0/0/0%
Cc1cccc(C(=O)NC2CC(n3cnc4c(NCc5ccc(OCCCN6CCN(C(=O)CNc7ccc8c(c7)C(=O)N([C@H]7CCC(=O)NC7=O)C8=O)CC6)cc5)ncnc43)C2)n1 (stereo partly drawn) [Compound 114, N-((1s,3s)-3-(6-((4-(3-(4-((2-(2,6-dioxopiperidin-3-yl)-1,3-dioxoisoindolin-5-yl)glycyl)piperazin-1-yl)propoxy)benzyl)amino)-9H-purin-9-yl)cyclobutyl)-6-methylpicolinamide]	30%	40%	50%	0/0/0%	0/0/0%	0/0/0%
